SMILES strings stand for the structures. Activity calls are given as the source filed them. No cut-off for these calls is given here.

Experimental findings from ChEMBL document CHEMBL4354883, “Design, Synthesis, and Biological Evaluation of HSP90 Inhibitor-SN38 Conjugates for Targeted Drug Accumulation” (J Med Chem, 2020) are described below.

The target of data set [1] is T1, DNA topoisomerase 1 (Homo sapiens) (UniProt P11387).
T1 sequence (whole entry): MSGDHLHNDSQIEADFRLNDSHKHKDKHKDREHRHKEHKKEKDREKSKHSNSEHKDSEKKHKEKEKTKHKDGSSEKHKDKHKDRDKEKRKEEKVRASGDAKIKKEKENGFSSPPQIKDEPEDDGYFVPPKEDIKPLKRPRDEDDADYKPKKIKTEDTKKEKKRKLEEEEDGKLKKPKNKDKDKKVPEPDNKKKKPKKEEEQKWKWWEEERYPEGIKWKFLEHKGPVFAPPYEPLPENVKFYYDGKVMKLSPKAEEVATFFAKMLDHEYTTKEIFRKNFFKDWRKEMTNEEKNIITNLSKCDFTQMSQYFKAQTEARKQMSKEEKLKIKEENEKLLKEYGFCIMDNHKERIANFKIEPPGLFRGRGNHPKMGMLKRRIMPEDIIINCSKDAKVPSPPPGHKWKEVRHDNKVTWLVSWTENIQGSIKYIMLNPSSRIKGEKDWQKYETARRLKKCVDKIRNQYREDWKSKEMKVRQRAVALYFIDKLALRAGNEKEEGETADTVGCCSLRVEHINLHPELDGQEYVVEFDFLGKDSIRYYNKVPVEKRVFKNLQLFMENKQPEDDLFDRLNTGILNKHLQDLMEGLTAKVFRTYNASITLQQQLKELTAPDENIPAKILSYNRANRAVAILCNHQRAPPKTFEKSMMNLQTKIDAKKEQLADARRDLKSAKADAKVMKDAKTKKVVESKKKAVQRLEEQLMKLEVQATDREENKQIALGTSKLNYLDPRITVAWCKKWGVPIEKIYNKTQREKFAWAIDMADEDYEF
The data set can be described thus: Inhibition of topoisomerase 1 in human HCT116 cells assessed as increase in phosphorylated KAP1 expression at 0.2 to 5 uM after 24 hrs by Western blot analysis. Type of data set: cell-based. (In general: A western blot detects proteins with antibodies after separation by electrophoresis.)

Data set [2] concerns the target T1, DNA topoisomerase 1 (Homo sapiens). In words: Inhibition of topoisomerase 1 in human A549 cells assessed as increase in phosphorylated KAP1 expression at 0.2 to 5 uM after 24 hrs by Western blot analysis. It counts as cell-based.
The next data set has as its target Heat shock protein HSP90 (Homo sapiens, UniProt P07900+P08238). The data set can be described thus: Inhibition of HSP90 in human HCT116 cells assessed as downregulation of Akt expression at 0.008 to 1 uM after 24 hrs by Western blot analysis. It counts as cell-based.
Data set [3] is described as follows: Stability of compound in PBS buffer assessed as drug degradation at 50 uM at pH 7.4 measured after 12 hrs by HPLC analysis. It counts as physicochemical. The following applies: read-out: Drug degradation.
Data set [4] relates to CAPAN-1. The data set can be described thus: Antitumor activity against human Capan1 cells xenografted in mouse assessed as reduction in tumor weight at 50 mg/kg, iv for every 2 days and measured twice per week by caliper method. It counts as functional, organism-based. In general terms: Xenograft models place foreign cells or tissue in a host animal.
Data set [5] addresses T1, DNA topoisomerase 1 (Homo sapiens). In words: Inhibition of topoisomerase 1 in human A549 cells assessed as increase in phosphorylated KAP1 expression after 24 hrs by Western blot analysis. It counts as cell-based.
For data set [6], the system named is CAPAN-1. In words: Antitumor activity against human Capan1 cells xenografted in mouse assessed as increase in apoptosis of tumor cells by measuring increase in green fluorescence at 50 mg/kg, iv for every 2 days measured at 2 hrs post last dose by TUNEL assay. Type of data set: functional, organism-based.
Data set [7] can be described thus: Drug uptake in tumor of mouse xenografted with human HCT116 cells at 50 mg/kg, iv administered as single dose after 1 hr by LC-MS/MS analysis. The following applies: in vivo. It counts as ADME, organism-based, Neoplasm.
Another data set deals with Mus musculus. In words: In vivo inhibition of topoisomerase 1 in mouse xenografted with human Capan1 cells assessed as increase in phosphorylated KAP1 expression at 50 mg/kg, iv for every 2 days measured at 2 hrs post last dose by Western blot analysis. Type of data set: functional, organism-based.
The nature of data set [8]: Prodrug release in tumor of mouse xenografted with human Capan1 cells assessed as increase in 7-ethyl-10-hydroxycamptothecin level at 50 mg/kg, iv after 72 hrs by LC-MS/MS analysis. Type of data set: ADME, organism-based, Neoplasm. The following applies: in vivo.
Data set [9] is described as follows: Prodrug release in mouse plasma xenografted with human Capan1 cells assessed as increase in 7-ethyl-10-hydroxycamptothecin level at 50 mg/kg, iv after 30 mins to 72 hrs by LC-MS/MS analysis. Type of data set: ADME, organism-based. The following applies: in vivo.

As for `CCc1c2c(nc3ccc(OC(=O)N4CCC(NC(=O)c5noc(-c6cc(C(C)C)c(O)cc6O)c5-c5ccc(CN6CCOCC6)cc5)CC4)cc13)-c1cc3c(c(=O)n1C2)COC(=O)[C@]3(O)CC`, the inhibition result in data set [1] and in data set [2] was “inactive” in each case.

For `CCc1c2c(nc3ccc(O)cc13)-c1cc3c(c(=O)n1C2)COC(=O)[C@@]3(CC)OC(=O)CNC(=O)c1noc(-c2cc(C(C)C)c(O)cc2O)c1-c1ccc(CN2CCOCC2)cc1`, the inhibition result on Heat shock protein HSP90 is “inactive”. Further, in data set [3], the degraded at 12 h, 50 µM was determined as 75%. The outcome in the data set on CAPAN-1 [4] and in the data set on CAPAN-1 [6] was Active. In addition, the inhibition entry in [5] is “Dose-dependent effect”. Further, in data set [7], the Drug uptake entry was “Not Active”. Moreover, the inhibition result with Mus musculus is “Active”. Besides, the Drug metabolism entry in [8] and in data set [9] was “Metabolite_Detected” throughout.
